Values of other authors in PMC8513935.

Experiments:
[1] = log P octanol/water from commercial databases, averaged (the ESI); conditions: Octanol (wet), 25 C
[2] = experimental, compiled by the authors from the literature (the ESI cites the sources)
[3] = derived by the authors as gas->solvent minus gas->water (a hypothetical dry solvent; the ESI), not a two-phase measurement

SMILES | log K of transfer, water to solvent [1] | log K of transfer, gas to solvent ([2]; 1,2-Dichloroethane, 25 C) | log K of transfer, gas to solvent ([2]; CCl4, 25 C) | log K of transfer, gas to solvent ([2]; Chlorobenzene, 25 C) | log K of transfer, gas to solvent ([2]; Chloroform, 25 C) | log K of transfer, gas to solvent ([2]; Di-n-butyl ether, 25 C) | log K of transfer, gas to solvent ([2]; Hexadecane, 25 C) | log K of transfer, gas to solvent ([2]; Hexane, 25 C) | log K of transfer, gas to solvent ([2]; Octan-1-ol, 25 C) | log K of transfer, gas to solvent ([2]; Water, 25 C) | log K of transfer, water to solvent ([3]; CCl4, 25 C) | log K of transfer, water to solvent ([3]; Chlorobenzene, 25 C) | log K of transfer, water to solvent ([3]; Chloroform, 25 C) | log K of transfer, water to solvent ([3]; Hexadecane, 25 C) | log K of transfer, water to solvent ([3]; Hexane, 25 C) | log K of transfer, water to solvent ([3]; Octan-1-ol(dry), 25 C) | log K of transfer, gas to solvent ([2]; Benzene, 25 C) | log K of transfer, gas to solvent ([2]; Cyclohexane, 25 C) | log K of transfer, water to solvent ([3]; Benzene, 25 C) | log K of transfer, water to solvent ([3]; Cyclohexane, 25 C) | also measured
C1CCOC1 | 0.46 log10 K | 3.32 log10 K | 3.13 log10 K | 2.97 log10 K | 3.86 log10 K | 2.79 log10 K | 2.63 log10 K | 2.7 log10 K | 2.86 log10 K | 2.56 log10 K | 0.57 log10 K | 0.41 log10 K | 1.3 log10 K | 0.076 log10 K | 0.14 log10 K | 0.3 log10 K | – | – | – | – | log K of transfer, gas to solvent ([2]; Methanol, 25 C): 3.25 log10 K; log K of transfer, gas to solvent ([2]; Propan-1-ol, 25 C): 2.9 log10 K; log K of transfer, gas to solvent ([2]; Propan-2-ol, 25 C): 2.89 log10 K; log K of transfer, gas to solvent ([2]; Propanone, 25 C): 3.02 log10 K; log K of transfer, gas to solvent ([2]; Tetrahydrofuran, 25 C): 3.14 log10 K; log K of transfer, water to solvent ([3]; 1,2-Dichloroethane, 25 C): 0.76 log10 K; log K of transfer, water to solvent ([3]; Acetone, 25 C): 0.46 log10 K; log K of transfer, water to solvent ([3]; Di-n-butyl ether, 25 C): 0.23 log10 K; log K of transfer, water to solvent ([3]; Methanol, 25 C): 0.69 log10 K; log K of transfer, water to solvent ([3]; Propan-1-ol, 25 C): 0.34 log10 K; log K of transfer, water to solvent ([3]; Propan-2-ol, 25 C): 0.33 log10 K; log K of transfer, water to solvent ([3]; Tetrahydrofuran, 25 C): 0.58 log10 K
CCCCN | 0.97 log10 K | 3.29 log10 K | 3.15 log10 K | 3.06 log10 K | 3.86 log10 K | 2.68 log10 K | 2.62 log10 K | – | 3.61 log10 K | 3.11 log10 K | 0.04 log10 K | -0.05 log10 K | 0.75 log10 K | -0.492 log10 K | – | 0.5 log10 K | 3.17 log10 K | 2.62 log10 K | 0.06 log10 K | -0.488 log10 K | log K of transfer, gas to solvent ([2]; Toluene, 25 C): 3.25 log10 K; log K of transfer, water to solvent ([3]; 1,2-Dichloroethane, 25 C): 0.18 log10 K; log K of transfer, water to solvent ([3]; Di-n-butyl ether, 25 C): -0.43 log10 K; log K of transfer, water to solvent ([3]; Toluene, 25 C): 0.14 log10 K
CCCCC(C)=O | 1.38 log10 K | – | 3.93 log10 K | 4.28 log10 K | – | – | 3.28 log10 K | 3.43 log10 K | 3.68 log10 K | 2.41 log10 K | 1.52 log10 K | 1.87 log10 K | – | 0.876 log10 K | 1.02 log10 K | 1.27 log10 K | 4.22 log10 K | 3.42 log10 K | 1.81 log10 K | 1.02 log10 K | log K of transfer, gas to solvent ([2]; Methanol, 25 C): 3.82 log10 K; log K of transfer, gas to solvent ([2]; Toluene, 25 C): 4.11 log10 K; log K of transfer, water to solvent ([3]; Methanol, 25 C): 1.41 log10 K; log K of transfer, water to solvent ([3]; Toluene, 25 C): 1.7 log10 K
CCC(C)O (centres unmarked) | 0.65 log10 K | – | 2.85 log10 K | 3.12 log10 K | 3.69 log10 K | – | 2.34 log10 K | 2.61 log10 K | 3.8 log10 K | 3.39 log10 K | -0.54 log10 K | -0.27 log10 K | 0.3 log10 K | -1.05 log10 K | -0.783 log10 K | 0.41 log10 K | – | – | – | – | log K of transfer, gas to solvent ([2]; 2-Methylpropan-2-ol, 25 C): 4.16 log10 K; log K of transfer, gas to solvent ([2]; Butan-1-ol, 25 C): 4.03 log10 K; log K of transfer, gas to solvent ([2]; Butan-2-ol, 25 C): 4.09 log10 K; log K of transfer, gas to solvent ([2]; Butanone, 25 C): 3.8 log10 K; log K of transfer, gas to solvent ([2]; Decan-1-ol, 25 C): 3.89 log10 K; log K of transfer, water to solvent ([3]; 2-Methylpropan-2-ol, 25 C): 0.77 log10 K; log K of transfer, water to solvent ([3]; Butan-1-ol, 25 C): 0.64 log10 K; log K of transfer, water to solvent ([3]; Butan-2-ol, 25 C): 0.7 log10 K; log K of transfer, water to solvent ([3]; Butanone, 25 C): 0.41 log10 K; log K of transfer, water to solvent ([3]; Decan-1-ol, 25 C): 0.506 log10 K
Cc1ccccn1 | 1.12 log10 K | – | – | – | 5.12 log10 K | – | 3.42 log10 K | – | – | 3.4 log10 K | – | – | 1.72 log10 K | 0.022 log10 K | – | – | 4.3 log10 K | 3.7 log10 K | 0.9 log10 K | 0.3 log10 K | log K of transfer, gas to solvent ([2]; 2-Methylpropan-1-ol, 25 C): 4.54 log10 K; log K of transfer, gas to solvent ([2]; 2-Methylpropan-2-ol, 25 C): 4.33 log10 K; log K of transfer, gas to solvent ([2]; Butan-2-ol, 25 C): 4.4 log10 K; log K of transfer, gas to solvent ([2]; Propan-2-ol, 25 C): 4.31 log10 K; log K of transfer, water to solvent ([3]; 2-Methylpropan-1-ol, 25 C): 1.14 log10 K; log K of transfer, water to solvent ([3]; 2-Methylpropan-2-ol, 25 C): 0.93 log10 K; log K of transfer, water to solvent ([3]; Butan-2-ol, 25 C): 0.999 log10 K; log K of transfer, water to solvent ([3]; Propan-2-ol, 25 C): 0.91 log10 K
CC(C)SC(C)C | 2.52 log10 K | – | – | – | – | – | 3.54 log10 K | – | – | 0.89 log10 K | – | – | – | 2.65 log10 K | – | – | – | – | – | – | –
